Data: patent publication US20050026846A1, “Pharmaceutical compositions comprising alkanoyl L-carnitine in combination with a statine for treating pathologies brought about by an altered lipid metabolism” (SIGMA-TAU INDUSTRIE FARMACEUTICHE RIUNITE S.p.A., priority 1997, published 2005)

Tests used:
Assay type in all cases: in vivo, human
[1] = system: hypertriglyceridaemic patients; assay: Clinical study: side effects; details: propionyl L-carnitine 2 g/day or 1.5 g/day os; simvastatin 10 or 5 mg/day os
Protocol: (§1) Eight hypertriglyceridaemic patients (3 males and 5 females) were recruited for the study, with a mean age of 65 years (range: 52-70), presenting mean triglyceridaemia values of 213.0±21.18 mg % and mean cholesterolaemia values of 158.1±25.90 mg %, who were put on a dietary regimen consisting in 40 Kcal/kg, 1.2 g/kg proteins and 1.4 g/kg lipids daily.
(§2) After baseline determinations of cholesterolaemia, triglyceridaemia, bilirubinaemia, alkaline phosphatase, protidaemia, GOT and GPT, all subjects took propionyl L-carnitine 2 g/day os for 60 days, which was discontinued on day 61 for a 30-day wash-out period. Simvastatin was then administered at a dose of 10 mg/day os in the evening for 30 days, followed by a further 30-day washout period and then by another 30-day period during which propionyl L-carnitine 1.5 g/day os and simvastatin 5 mg/day os were administered simultaneously.
All patients completed the study according to the procedures described. […] During the wash-out period the mean triglyceridaemia value recorded was 202.5±9.71 mg %, whereas the mean baseline value was 213.0±21.1 1 mg % (Table 2).

[2] = system: hypertriglyceridaemic patients; assay: Clinical study: triglyceridaemia (blood-chemistry tests); details: for Triglyceridaemia, statistical significance (p) vs baseline: propionyl L-carnitine 2 g/day, Student's t-test for paired data
Protocol: as §1, §2
(§3) Blood-chemistry tests were performed before and after each course of drug treatment and at the end of each wash-out period. The data obtained were subjected to statistical analysis using Student's t-test for paired data (Table 1).

[3] = system: hypertriglyceridaemic patients; assay: Clinical study: cholesterolaemia (blood-chemistry tests); details: for Cholesterolaemia, statistical significance (p) vs baseline: propionyl L-carnitine 2 g/day, Student's t-test for paired data
Protocol: as §1, §2, §3

[4] = 30 days os, simvastatin 10 mg/day, combination 1.5 g/day + 5 mg/day

SMILES	side effects attributable to the drugs during the study period [1]	Triglyceridaemia, statistical significance (p) vs baseline [2, 4]	Triglyceridaemia, statistical significance (p) vs baseline ([2]; 30 days os, simvastatin 10 mg/day, combination 1.5 g/day + 5 mg/day, listed as Propionyl L-carnitine)	Triglyceridaemia, statistical significance (p) vs baseline ([2]; 60 days os)	Triglyceridaemia, statistical significance (p) vs baseline ([2]; 60 days os, listed as Propionyl L-carnitine)	triglyceridaemia after treatment, significance (p): propionyl L-carnitine vs simvastatin ([2]; each administered alone)	Cholesterolaemia, statistical significance (p) vs baseline [3, 4]	Cholesterolaemia, statistical significance (p) vs baseline ([3]; 60 days os)	mean post-treatment triglyceride value ([2]; after 30 days os, simvastatin 10 mg/day, or propionyl L-carnitine 1.5 g/day + simvastatin 5 mg/day, baseline 213.0±21.18 mg %, 8 patients) [mg %]	mean cholesterolaemia value after treatment ([3]; after 30 days os, simvastatin 10 mg/day, or propionyl L-carnitine 1.5 g/day + simvastatin 5 mg/day, baseline 158.12±25.90 mg %, 8 patients) [mg %]
CCC(=O)O[C@H](CC(=O)[O-])C[N+](C)(C)C [propionyl L-carnitine]	no side effects	< 0.3671	p < 0.3671	< 0.0272	p < 0.0272	< 0.167	p < 0.4795	p < 0.0198		
CCC(C)(C)C(=O)O[C@H]1C[C@@H](C)C=C2C=C[C@H](C)[C@H](CC[C@@H]3C[C@@H](O)CC(=O)O3)[C@H]21 [simvastatin, reference compound]							p < 0.0585		193.8±22.63	156.75±22.82
